Assay results reported in ChEMBL document CHEMBL1201862, “PubChem BioAssay data set” (2004).
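How tested: cells in 96-well plates exposed to compound for 48 hours at five concentrations. Abbreviation: GI50, concentration required for 50% inhibition of growth.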 The source made the active and inactive calls. No stated cut-off is given here; in the data, active = GI50 up to about 1.1 µM and inactive = higher.

How the values were obtained:
Test in all cases: NCI tumour cell line growth inhibition, 48 h
786-0 = system: 786-0
A549 = system: A549
ACHN = system: ACHN
CAKI-1 = system: CAKI-1
CCRF-CEM = system: CCRF-CEM
COLO 205 = system: COLO 205
DLD-1 = system: DLD-1
DMS-114 = system: DMS-114
DMS-273 = system: DMS-273
EKVX = system: EKVX
HCC 2998 = system: HCC 2998
HCT-116 = system: HCT-116
HCT-15 = system: HCT-15
HL-60 = system: HL-60
HOP-18 = system: HOP-18
HOP-62 = system: HOP-62
HOP-92 = system: HOP-92
HT-29 = system: HT-29
IGROV-1 = system: IGROV-1
K562 = system: K562
KM-20L2 = system: KM-20L2
KM12 = system: KM12
LXFL 529 = system: LXFL 529
M14 = system: M14
M19-MEL = system: M19-MEL
MOLT-4 = system: MOLT-4
Malme-3M = system: Malme-3M
NCI-H226 = system: NCI-H226
NCI-H23 = system: NCI-H23
NCI-H460 = system: NCI-H460
NCI-H522 = system: NCI-H522
OVCAR-3 = system: OVCAR-3
OVCAR-4 = system: OVCAR-4
OVCAR-5 = system: OVCAR-5
OVCAR-8 = system: OVCAR-8
RXF 631 = system: RXF 631
SF-268 = system: SF-268
SF-295 = system: SF-295
SF-539 = system: SF-539
SK-MEL-28 = system: SK-MEL-28
SK-MEL-2 = system: SK-MEL-2
SK-MEL-5 = system: SK-MEL-5
SK-OV-3 = system: SK-OV-3
SN12C = system: SN12C
SNB-19 = system: SNB-19
SNB-75 = system: SNB-75
SNB-78 = system: SNB-78
SR = system: SR
SW-620 = system: SW-620
TK-10 = system: TK-10
U-251 = system: U-251
UACC-257 = system: UACC-257
UACC-62 = system: UACC-62
UO-31 = system: UO-31
A498 = system: A498
LOX IMVI = system: LOX IMVI
RPMI-8226 = system: RPMI-8226
RXF 393 = system: RXF 393
XF498 = system: XF498

C=CCc1cc(OC)c2c(c1)C(O)CC(c1ccccc1)O2 (stereo unspecified)
GI50 (786-0): > 100 µM (inactive)
GI50 (A549): > 100 µM (inactive)
GI50 (ACHN): > 100 µM (inactive)
GI50 (CAKI-1): 62.7 µM (inactive)
GI50 (CCRF-CEM): > 100 µM (inactive)
GI50 (COLO 205): > 100 µM (inactive)
GI50 (DLD-1): > 100 µM (inactive)
GI50 (DMS-114): > 100 µM (inactive)
GI50 (DMS-273): > 100 µM (inactive)
GI50 (EKVX): > 100 µM (inactive)
GI50 (HCC 2998): > 100 µM (inactive)
GI50 (HCT-116): > 100 µM (inactive)
GI50 (HCT-15): 96.6 µM
GI50 (HL-60): 35.6 µM (inactive)
GI50 (HOP-18): > 100 µM (inactive)
GI50 (HOP-62): > 100 µM (inactive)
GI50 (HOP-92): > 100 µM (inactive)
GI50 (HT-29): 60.1 µM (inactive)
GI50 (IGROV-1): > 100 µM (inactive)
GI50 (K562): 23.6 µM (inactive)
GI50 (KM-20L2): 78.3 µM (inactive)
GI50 (KM12): > 100 µM (inactive)
GI50 (LXFL 529): > 100 µM (inactive)
GI50 (M14): > 100 µM (inactive)
GI50 (M19-MEL): > 100 µM (inactive)
GI50 (MOLT-4): 27.9 µM (inactive)
GI50 (Malme-3M): > 100 µM (inactive)
GI50 (NCI-H226): > 100 µM (inactive)
GI50 (NCI-H23): > 100 µM (inactive)
GI50 (NCI-H460): > 100 µM (inactive)
GI50 (NCI-H522): > 100 µM (inactive)
GI50 (OVCAR-3): > 100 µM (inactive)
GI50 (OVCAR-4): > 100 µM (inactive)
GI50 (OVCAR-5): 78.5 µM (inactive)
GI50 (OVCAR-8): > 100 µM (inactive)
GI50 (RXF 631): > 100 µM (inactive)
GI50 (SF-268): > 100 µM (inactive)
GI50 (SF-295): > 100 µM (inactive)
GI50 (SF-539): > 100 µM (inactive)
GI50 (SK-MEL-28): > 100 µM (inactive)
GI50 (SK-MEL-2): > 100 µM (inactive)
GI50 (SK-MEL-5): > 100 µM (inactive)
GI50 (SK-OV-3): > 100 µM (inactive)
GI50 (SN12C): > 100 µM (inactive)
GI50 (SNB-19): > 100 µM (inactive)
GI50 (SNB-75): > 100 µM (inactive)
GI50 (SNB-78): > 100 µM (inactive)
GI50 (SR): > 100 µM (inactive)
GI50 (SW-620): > 100 µM (inactive)
GI50 (TK-10): > 100 µM (inactive)
GI50 (U-251): > 100 µM (inactive)
GI50 (UACC-257): > 100 µM (inactive)
GI50 (UACC-62): > 100 µM (inactive)
GI50 (UO-31): > 100 µM (inactive)

c1ccc(CNc2ccc3[nH]c4cnccc4c3c2)cc1
GI50 (786-0): 15.3 µM (inactive)
GI50 (A498): 15 µM (inactive)
GI50 (A549): 17.9 µM (inactive)
GI50 (ACHN): 15.1 µM (inactive)
GI50 (CAKI-1): 16.2 µM (inactive)
GI50 (CCRF-CEM): 16.9 µM (inactive)
GI50 (COLO 205): 15.9 µM (inactive)
GI50 (DLD-1): 16.6 µM (inactive)
GI50 (DMS-114): 14.8 µM (inactive)
GI50 (DMS-273): 19.8 µM (inactive)
GI50 (EKVX): 19 µM (inactive)
GI50 (HCC 2998): 18.1 µM (inactive)
GI50 (HCT-116): 17.5 µM (inactive)
GI50 (HCT-15): 19.4 µM
GI50 (HL-60): 11 µM (inactive)
GI50 (HOP-62): 17.2 µM (inactive)
GI50 (HOP-92): 15.6 µM (inactive)
GI50 (HT-29): 17.7 µM (inactive)
GI50 (IGROV-1): 16.8 µM (inactive)
GI50 (K562): 14.3 µM (inactive)
GI50 (KM-20L2): 16.2 µM (inactive)
GI50 (KM12): 17.3 µM (inactive)
GI50 (LOX IMVI): 17.8 µM (inactive)
GI50 (LXFL 529): 16.6 µM (inactive)
GI50 (M14): 18 µM (inactive)
GI50 (M19-MEL): 18.7 µM (inactive)
GI50 (MOLT-4): 14 µM (inactive)
GI50 (Malme-3M): 16.9 µM (inactive)
GI50 (NCI-H226): 19.1 µM (inactive)
GI50 (NCI-H23): 15.1 µM (inactive)
GI50 (NCI-H460): 17.9 µM (inactive)
GI50 (NCI-H522): 14 µM (inactive)
GI50 (OVCAR-3): 14 µM (inactive)
GI50 (OVCAR-4): 14.4 µM (inactive)
GI50 (OVCAR-5): 16.8 µM (inactive)
GI50 (OVCAR-8): 17.5 µM (inactive)
GI50 (RPMI-8226): 16.4 µM (inactive)
GI50 (RXF 393): 13.6 µM (inactive)
GI50 (RXF 631): 20.6 µM (inactive)
GI50 (SF-268): 16.4 µM (inactive)
GI50 (SF-295): 18.5 µM (inactive)
GI50 (SF-539): 18.1 µM (inactive)
GI50 (SK-MEL-28): 13.6 µM (inactive)
GI50 (SK-MEL-2): 17.7 µM (inactive)
GI50 (SK-MEL-5): 15.2 µM (inactive)
GI50 (SK-OV-3): 18.8 µM (inactive)
GI50 (SN12C): 16.9 µM (inactive)
GI50 (SNB-19): 16 µM (inactive)
GI50 (SNB-75): 6.89 µM (inactive)
GI50 (SNB-78): 20.9 µM (inactive)
GI50 (SW-620): 19.9 µM (inactive)
GI50 (TK-10): 20 µM (inactive)
GI50 (U-251): 15.9 µM (inactive)
GI50 (UACC-257): 17.4 µM (inactive)
GI50 (UACC-62): 17.6 µM (inactive)
GI50 (UO-31): 15.5 µM (inactive)
GI50 (XF498): 19.4 µM (inactive)
